{
  "source": "patent US20140024700A1",
  "about": "“BLOOD-BORNE MIRNAS AS SURROGATE MARKERS OF DRUG EFFICACY FOR CARDIAC CONDITIONS” (miRagen Therapeutics, Inc., priority 2010, published 2014)",
  "key": {"Dahl salt-sensitive rats [1]": {"test_system": "Dahl salt-sensitive rats", "test": "Dahl salt-sensitive rat heart failure model, 8% NaCl high-salt diet (Example 1)", "format": "in vivo", "settings": "8% NaCl HS diet", "from_the_text": "To determine the therapeutic potential of miR-208a inhibition in vivo, we designed an antimiR targeting bases 2 to 17 of the 5′ region of mature miR-208a and containing a combination of LNA and DNA linked by phosphorothioate bonds. The sequence of the antimiR-208a, which is referred to as M-10101, was 5′-[…]-3′ (SEQ ID NO: 12). To test the therapeutic relevance of miR-208a inhibition, we used Dahl salt-sensitive rats that were either fed a low-salt (LS) diet (0.25% NaCl) or a high-salt (HS) diet (8.0% NaCl) starting at 8 weeks of age. Initiation of an HS diet in Dahl salt-sensitive rats results in chronic hypertension, which progresses to a model of congestive heart failure associated primarily with diastolic dysfunction (Rodenbaugh et al. (2007) Am J Physiol Heart Circ Physiol. 293, H1705-H1713). After one week on the HS diet, rats were administered saline, 25 mg/kg antimiR-208a, or 25 mg/kg scrambled control oligo subcutaneously every two weeks. […] As an indication of health, we monitored body weight during the duration of the study.\nThe LNA-antimiR oligonucleotides were synthesized at miRagen Therapeutics, Inc. as unconjugated and fully phosphorothiolated oligonucleotides perfectly complementary to the 5′ region of the mature miR-208a sequence. The LNA control oligonucleotide consisted of a sequence directed against a C. elegans specific miRNA. […]"}, "Dahl salt-sensitive rats [2]": {"test_system": "Dahl salt-sensitive rats", "test": "Dahl salt-sensitive rat model, 4% NaCl diet: body weight, echocardiography, histology (Example 1)", "format": "in vivo", "settings": "4% NaCl HS diet", "procedure": "To obtain additional insight into the basis for the protective effects seen in response to antimiR-208a, subsequent studies were done using a 4.0% NaCl diet, during which the rats received saline, 5 or 25 mg/kg of antimiR-208a, or 25 mg/kg of antimiR control every 2 weeks.\nThe LNA-antimiR oligonucleotides were synthesized at miRagen Therapeutics, Inc. as unconjugated and fully phosphorothiolated oligonucleotides perfectly complementary to the 5′ region of the mature miR-208a sequence. The LNA control oligonucleotide consisted of a sequence directed against a C. elegans specific miRNA. Unless otherwise indicated, in vivo delivery of the oligonucleotide chemistries was achieved by low pressure intravenous (i.v.) injections via the tail vein or subcutaneous injections of either adult male C56B16 mice or adult male Dahl Salt-sensitive rats (Harlan, Indianapolis). […] Tissue samples were collected at the indicated timepoints for molecular or histological examination. Dahl rats were maintained on 0.25 NaCl or placed on 4% or 8% NaCl diet at 8 weeks of age (Harlan, Indianapolis)."}, "[3]": {"test_system": "miR-499, miR-208b, Myh6, Myh7, Myh7b, HP1β", "test": "Cardiac tissue markers by real-time PCR, Northern and Western blot, 4% NaCl diet (Example 1)", "format": "in vivo, rat", "settings": "4% NaCl HS diet", "from_the_text": "(§1) This regulation of miR-499 and miR-208b was confirmed by Northern blot analysis (FIG. 2B).\nTo assess the regulation of the myosin host genes, we examined Myh6, Myh7, and Myh7b mRNA levels.\n(§2) For in vivo real-time PCR analysis, RNA was extracted from cardiac tissue using Trizol (Invitrogen) after which two μg RNA from each tissue sample was used to generate cDNA using Super Script II reverse transcriptase per manufacturer's specifications (Invitrogen). To detect the level of miR-208 RT-PCR was performed using the Taqman MicroRNA assay (Applied Biosystems, ABI) according the manufacturer's recommendations, using 10-100 ng of total RNA. The expression of a subset of genes was analyzed by quantitative real time PCR using Taqman probes purchased from ABI.\nTotal RNA was isolated from cardiac tissue samples by using Trizol reagent (Gibco/BRL). Northern blots to detect microRNAs were performed as described previously described. A U6 probe served as a loading control (IDT). 10 μg of total RNA from cardiomyocytes or heart tissue was loaded on 20% acrylamide denaturing gels and transferred to Zeta-probe GT genomic blotting membranes (Bio-Rad) by electrophoresis. After transfer, the blots were cross-linked and baked at 80° C. for 1 hr. To maximize the sensitivity of miRNA detection, oligonucleotide probes were labeled with the Starfire Oligos Kit (IDT, Coralville, Iowa) and α-^32P dATP (Amersham or Perkin Elmer). Probes were hybridized to the membranes overnight at 39° C. in Rapid-hyb buffer (Amersham), after which they were washed twice for 10 minutes at 39° C. with 0.5×SSC containing 0.1% SDS. The blots were exposed and quantified by PhosphorImager analysis (GE HealthCare Life Sciences) and a U6 probe served as a loading control (ABI). The intensity of the radioactive signal was used to quantify the fold change in expression using a phosphorimager and ImageQuant (Bio-Rad).\nWestern blot analysis. For Western blot analysis, Myosin was extracted from cardiac cells or tissue as described (H-amalainen, N. & Pette, D. Patterns of myosin isoforms in mammalian skeletal muscle fibres. Microsc Res Tech 30, 381-389 (1995)). MHC isoforms were detected by loading 0.1 ug protein lysate on a 4-15% gradient gel and separated by SDS PAGE and Western blotting was performed with mouse monoclonal anti-myosin (slow, skeletal M8421) (Sigma, Mo.), which is highly specific for Myh7."}, "miR-208a": {"test_system": "miR-208a", "test": "Real-time PCR of miR-208a in cardiac tissue, 4% NaCl diet (Example 1)", "format": "in vivo, rat", "settings": "4% NaCl HS diet, 2 weeks after last injection, 5 or 25 mg/kg antimiR, control 25 mg/kg", "procedure": "as §1, §2"}, "Dahl salt-sensitive rats [4]": {"test_system": "Dahl salt-sensitive rats", "test": "Dahl salt-sensitive rat model, 6% NaCl diet: body weight and survival (Example 3)", "format": "in vivo"}, "[5]": {"settings": "8 weeks, histological quantification, listed as antimiR-208a"}, "[6]": {"settings": "8 weeks after HS diet, vs HS/saline, listed as antimiR-208a"}, "[7]": {"settings": "real-time PCR, Northern blot, listed as anti-miR-208a"}, "[8]": {"settings": "real-time PCR, listed as AntimiR-208a"}, "[9]": {"settings": "real-time PCR, listed as anti-miR-208a"}},
  "note": "“Also recorded” adds a separate entry of the source.",
  "data": [
    {"substance": "M-10101: antimiR targeting bases 2 to 17 of mature miR-208a, LNA and DNA linked by phosphorothioate bonds; 5′-CTTTTTGCTCGTCTTA-3′ (SEQ ID NO: 12) (all phosphorothioate, sugars by position and methylation of C not given here; LNA/DNA mixmer; listed as Homo sapiens)", "values": [
      {"measurement": "Food intake", "setting": "Dahl salt-sensitive rats [1]", "value": "comparable ingestion between all HS-fed groups"},
      {"measurement": "Survival (Kaplan-Meier)", "setting": "Dahl salt-sensitive rats [1]; 25 mg/kg sc every 2 weeks starting 1 week after HS diet, listed as antimiR-208a, 25 mg/kg", "value": "significantly alleviated these symptoms; also recorded: significantly improved"},
      {"measurement": "Cardiomyocyte hypertrophy (cardiomyocyte size)", "setting": "Dahl salt-sensitive rats [2]; [5]", "value": "significant reduction in cardiomyocyte hypertrophy; also recorded: significantly less hypertrophy"},
      {"measurement": "Periarteriolar (perivascular) fibrosis, Picrosirius Red staining", "setting": "Dahl salt-sensitive rats [2]; [5]", "value": "reduced periarteriolar fibrosis; also recorded: significantly less hypertrophy and fibrosis"},
      {"measurement": "Body weight gain", "setting": "Dahl salt-sensitive rats [2]; 5 or 25 mg/kg every 2 weeks, listed as antimiR-208a", "value": "maintained their increase in weight gain; also recorded: sufficient to maintain weight gain comparable to that in animals on a normal diet"},
      {"measurement": "Isovolumic relaxation time (IVRT), echocardiography", "setting": "Dahl salt-sensitive rats [2]; [6]", "value": "significant dose-dependent reduction; also recorded: significantly improved"},
      {"measurement": "Mitral valve early to active filling velocity ratio (MV E/A)", "setting": "Dahl salt-sensitive rats [2]; [6]", "value": "normalization; also recorded: significantly improved"},
      {"measurement": "Isovolumic relaxation time, time-dependent echocardiography", "setting": "Dahl salt-sensitive rats [2]; every 2 weeks after HS diet, vs HS/saline, data not shown", "value": "significant reductions in isovolumic relaxation time"},
      {"measurement": "HP1β (miR-208a target) protein, Western blot", "setting": "[3]; listed as anti-miR-208a", "value": "target depression"},
      {"measurement": "Myh7 protein, Western blot of ventricular tissue", "setting": "[3]; listed as anti-miR-208a", "value": "dose-dependent regulation of Myh7 was confirmed"},
      {"measurement": "Myh7 protein, Western blot of ventricular tissue", "setting": "[3]; listed as antimiR-208a", "value": "dose-dependent reduction"},
      {"measurement": "miR-208b level in cardiac tissue", "setting": "[3]; [7]", "value": "dose-dependent decrease in miR-208b levels"},
      {"measurement": "miR-499 expression in cardiac tissue", "setting": "[3]; [7]", "value": "dose-dependent decrease in expression; also recorded: dose-dependent reduction in miR-499"},
      {"measurement": "miR-208b level in cardiac tissue", "setting": "[3]; real-time PCR, Northern blot, listed as antimiR-208a", "value": "significantly blunts this response"},
      {"measurement": "Myh6 mRNA in cardiac tissue", "setting": "[3]; [8]", "value": "dose-dependently increases Myh6 expression"},
      {"measurement": "Myh7b mRNA in cardiac tissue", "setting": "[3]; [8]", "value": "reduces Myh7b expression"},
      {"measurement": "Myh7 mRNA (HS diet-induced increase) in cardiac tissue", "setting": "[3]; [8]", "value": "dose-dependently reduced"},
      {"measurement": "Myh6 mRNA in cardiac tissue", "setting": "[3]; [9]", "value": "normalized the decreased expression"},
      {"measurement": "Myh7b mRNA in cardiac tissue", "setting": "[3]; [9]", "value": "dose-dependent reduction"},
      {"measurement": "Myh7 mRNA (HS diet-induced increase) in cardiac tissue", "setting": "[3]; [9]", "value": "dose-dependently blunted"},
      {"measurement": "miR-208a level in left and right ventricle", "setting": "miR-208a; listed as Anti-miR-208a", "value": "dose-dependent inhibition"},
      {"measurement": "miR-208a level in left and right ventricle", "setting": "miR-208a; listed as anti-miR-208a", "value": "dose-dependent reduction of miR-208a"},
      {"measurement": "Survival (Kaplan-Meier)", "setting": "Dahl salt-sensitive rats [4]; M-10101 25 mg/kg sc every 2 weeks, water po, 25 mg/kg", "value": "significantly improved survival; also recorded: No mortality was observed"},
      {"measurement": "Body weight", "setting": "Dahl salt-sensitive rats [4]; oligonucleotide 25 mg/kg sc every 2 weeks", "value": "partially prevented the body weight loss"}
    ]}
  ]
}
